We go through 1 compound from patent US20250154288A1, “CYTOTOXICITY TARGETING CHIMERAS FOR C-C CHEMOKINE RECEPTOR 2-EXPRESSING CELLS” (GLAXOSMITHKLINE INTELLECTUAL PROPERTY DEVELOPMENT LIMITED, priority 2022, published 2025).

The test system of this assay is endogenous target monocytes of human PBMC. As to the kind of experiment: PBMC Ex Vivo Depletion Assay (human PBMC monocyte depletion flow cytometry). In kind it is cell-based. The settings on record: monocyte depletion in human PBMC with anti-cotinine antibody; 18-24 hours incubation; read-out: Ex Vivo Depletion Assay pEC50 (converted). The method, then: A human PBMC (peripheral blood mononuclear cells) monocyte depletion flow cytometry assay was developed to screen compounds in a 384-well plate format. This assay incorporated endogenous natural killer cells to deplete endogenous target monocytes.
To screen compounds in the human PBMC monocyte depletion flow cytometry assay, 11-point dose-response curves were made from 1 mM stocks in neat DMSO by serially diluting an ARM compound of Formula (I) four-fold into a 384-well plate row-wise. These serially diluted compounds were then stamped into a flat bottom polypropylene 384-well plate (Greiner Bio-One) at 100 nL/well. […]
After 18-24 hours incubation, 2 μL of 6.25 μg human FC block (BD Pharmingen) that was diluted in assay medium was added to the wells of the plate. […] Samples from the plate were run on BD FACS Canto II flow cytometer and data was analyzed using FlowJo software.
ARMs compounds of Formula (I) of the invention were tested for the ability to deplete monocytes in the above assay in one or more experimental runs and the results are shown in Table 3 below. […] The pEC50 value is the negative log of the EC50 value, wherein the EC50 value is the half maximal effective concentration measured in molar (M). For compounds tested in more than one experimental run, the pEC50 value is reported as an average or as the individual values measured

As to `CO[C@@H]1COCC[C@@H]1N[C@@H]1CC[C@@](C(=O)N2CCc3nc(CCCCOc4cccc(C(=O)NCCOCCOCCOCCOCCOCCOCCOCCOCCOCCNC(=O)[C@H]5CC(=O)N(C)[C@@H]5c5cccnc5)c4)c(C(F)(F)F)cc3C2)(C(C)C)C1` [Example 22, (2S,3S)—N-(1-(3-(4-(6-((1S,3R)-1-Isopropyl-3-(((3S,4S)-3-methoxytetrahydro-2H-pyran-4-yl)amino)cyclopentane-1-carbonyl)-3-(trifluoromethyl)-5,6,7,8-tetrahydro-1,6-naphthyridin-2-yl)butoxy)phenyl)-1-oxo-5,8,11,14,17,20,23,26,29-nonaoxa-2-azahentriacontan-31-yl)-1-methyl-5-oxo-2-(pyridin-3-yl)pyrrolidine-3-carboxamide], the EC50 was 0.794 nM.
